Measurements published in the supplement of paper PMC5770543.
± gives the standard deviation.

How the values were obtained:
[1] = system: Plasmodium falciparum 3D7; assay: EC50 growth inhibition (60 h, SYBR Green); conditions: stage: ring-stage start
[2] = target: Toxoplasma gondii RH tachyzoites; assay: EC50 growth inhibition (48 h luciferase)
[3] = system: Toxoplasma gondii RH tachyzoites; assay: % growth inhibition vs DMSO (48 h luciferase); higher = more inhibition; conditions: 10 µM
[4] = system: Plasmodium falciparum 3D7; assay: % inhibition of schizont-to-ring transition vs DMSO; higher = more inhibition
Procedure, shortened: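 Schizont-to-ring transition inhibition is the formation of new rings relative to vehicle controls. Tightly synchronised P. falciparum schizonts at about 40–42 hours post-invasion (1% parasitemia, 2.5% hematocrit, AlbuMAX-supplemented RPMI) were treated with compound at 1, 3 or 10 µM, alongside vehicle and positive controls. After glutaraldehyde fixation, Triton permeabilisation and Hoechst 33342 staining, at least 100,000 events were counted by flow cytometry, and values are the mean of three experiments.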
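For % growth inhibition vs DMSO (48 h luciferase) in this document: tested in triplicate wells of 96-well plates on confluent HFF monolayers, with 1% DMSO wells as negative control in four replicates.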

SMILES | EC50 growth inhibition [1] | EC50 growth inhibition [2] | % growth inhibition [3] | % inhibition of schizont-to-ring transition ([4]; 1 µM) | % inhibition of schizont-to-ring transition ([4]; 3 µM) | % inhibition of schizont-to-ring transition ([4]; 10 µM)
Clc1cc(Br)ccc1-c1ccc(CNCC2CCNCC2)o1 | 763 nM | 207 nM | 99.53 ± 0.77% | 46% | 50.9% | 74.4%
Cc1sc(NC(=O)c2ccco2)c(C(c2cccnc2)N2CCC(Cc3ccccc3)CC2)c1C (stereo not given) | 833 nM | 1120 nM | 99.83 ± 0.14% | 6.59% | 41.7% | 62.4%
Cc1ccccc1OCCSc1nc2ccc(NC(=O)c3cccs3)cc2s1 | 3730 nM | 1160 nM | 99.844 ± 0.082% | 10.7% | 28.6% | 55.5%
COc1ccc(C2Sc3ccccc3N=C3C2=C(O)c2ccccc23)cc1 (stereo not given) | 1180 nM | 963 nM | 98.68 ± 0.16% | < 0% | 1.15% | 31.1%
CCN(CC)CCn1c(=N)n(CC(O)c2ccc(Cl)c(Cl)c2)c2ccccc21 (stereo not given) | 267 nM | 1310 nM | 85.7 ± 6.1% | 51% | 73.3% | 78.2%
CCOC(=O)c1cnc2ccc(Cl)cc2c1NCCCN(C)C | 1020 nM | 2340 nM | 82.2 ± 2.8% | 0.181% | 23.3% | 54.9%
CCCCCn1c(=N)n(CC(O)COc2cccc(C)c2)c2ccccc21 (stereo not given) | 1940 nM | 1770 nM | 99.47 ± 0.32% | 8.72% | 13.3% | 61.9%
COc1cccc(Nc2nc(NCCO)c3ccccc3n2)c1 | 456 nM | 1090 nM | 97.5 ± 1.6% | 39.7% | 60.8% | 65.6%
O=C(NCC1Cc2cccc(-c3ccncc3)c2O1)c1csc2c1CCCC2 (stereo not given) | 4480 nM | 845 nM | 94.12 ± 0.48% | 9.1% | 14.2% | 20.6%
CCn1nc(-c2ccc(C(=O)OC)cc2)nc2c(=O)n(C)c(=O)nc1-2 | 107 nM | 2200 nM | 100.5 ± 0.19% | 30.7% | 37.6% | 53.3%
OC(CNCC1CCCO1)Cn1c2ccc(Cl)cc2c2cc(Cl)ccc21 (stereo not given) | 394 nM | 4460 nM | 99.23 ± 0.57% | 5.57% | 44.1% | 65.7%
CN(C)c1ccc(C=Cc2nc(=O)c3ccccc3o2)cc1 | 522 nM | 264 nM | 99.12 ± 0.036% | 44.1% | 60.6% | 70.1%
COCCN(C(=O)Cc1cccs1)C(C(=O)NCc1ccc(OC)cc1)c1ccc(C(C)C)cc1 (stereo not given) | 935 nM | 2420 nM | 91.5 ± 3.5% | 10.9% | 13.7% | 21.6%
c1ccc2c(NCCc3c[nH]c4ccccc34)c3ccccc3nc2c1 | 201 nM | 170 nM | 100.1 ± 0.54% | 57.4% | 60.8% | 71.5%
N=c1n(CCN2CCCCC2)c2ccccc2n1CC(=O)c1ccc(Cl)c(Cl)c1 | 237 nM | 1820 nM | 99.931 ± 0.065% | 36.2% | 57.9% | 80.4%
